Assay results reported in patent US6495517B2, “Cyclooxygenase inhibitor” (A. Natterman & Cie. GmbH, priority 1998, dated 2002).

Experiments:
[1] = molecular target: T1, Cyclooxygenase 2 derived from sheep placentae (Ovis aries, UniProt P79208); experiment: In vitro inhibition of cyclooxygenase 2 activity (synthesis of prostaglandin H2 from 14C-arachidonic acid, TLC autoradiography); settings: sheep placenta COX-2, 35° C., 30 min
T1 sequence (P79208 17-603): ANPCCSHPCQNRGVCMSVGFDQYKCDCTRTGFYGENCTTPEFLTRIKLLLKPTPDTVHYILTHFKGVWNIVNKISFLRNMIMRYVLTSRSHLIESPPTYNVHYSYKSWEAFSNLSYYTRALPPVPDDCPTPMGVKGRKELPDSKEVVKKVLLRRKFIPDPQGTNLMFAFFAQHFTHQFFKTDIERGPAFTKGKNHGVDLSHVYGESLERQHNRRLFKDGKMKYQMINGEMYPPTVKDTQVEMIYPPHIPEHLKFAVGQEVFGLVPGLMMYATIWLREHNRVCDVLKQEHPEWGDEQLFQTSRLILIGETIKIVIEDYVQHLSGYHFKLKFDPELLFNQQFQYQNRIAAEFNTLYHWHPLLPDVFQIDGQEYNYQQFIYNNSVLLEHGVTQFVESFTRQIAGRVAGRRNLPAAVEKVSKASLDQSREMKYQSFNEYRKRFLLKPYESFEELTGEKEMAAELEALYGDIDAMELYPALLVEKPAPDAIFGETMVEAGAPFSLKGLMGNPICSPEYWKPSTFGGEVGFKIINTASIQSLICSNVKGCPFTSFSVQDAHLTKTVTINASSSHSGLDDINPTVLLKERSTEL
Method: Arachidonic acid was used as the substrate in the present example. Ten μl of arachidonic acid was dissolved in methanol (10 mg/ml) and mixed with 5 μCi of ^14C-labeled arachidonic acid; and to obtain a dried substrate, the solvent was evaporated by blowing with nitrogen gas at room temperature. Subsequently, the substrate was dissolved in 50 μl of dimethylsulfoxide (DMSO), and 10 ml of 5 mM Tris-HCl buffer (pH 8.0) containing 2 mM phenol was added to the substrate solution, followed by sonication to completely dissolve the sample. Separately, test compounds having final concentrations of 0.1-10 μM were prepared. […] Five μl of each compound solution was added to 5 μl of the above substrate solution, followed by mixing. The samples were then preincubated at 35° C. for about 10 min. Cyclooxygenase 2 derived from sheep placentae (Cayman Chem.) had been separately diluted 10-fold with the above buffer, and 20 μl of the enzyme solution was added to each of the above samples. The enzyme reaction was carried out at 35° C. for 30 min, and stopped by adding 0.5 ml of ice-cold ethanol to each sample. Then, to 0.9 ml of each sample, 2.0 ml of 2% acetic acid solution was added. Arachidonic acid and its metabolite prostaglandin H2 were then extracted with 3.0 ml of ethyl acetate. From each extracted sample, a 2.0-ml portion was transferred to a new test tube. The solvent was distilled off from the transferred samples under reduced pressure, and the samples were dried in vacuo. Then each dried sample was dissolved in 100 μl of methanol, out of which 5 μl was subjected to analysis by high resolution thin layer chromatography. Arachidonic acid and its metabolite prostaglandin H2 were separated by chromatography with a developing solution of chloroform, ethyl acetate, methanol, acetic acid and water in proportions of 70:30:8:1:0.5 (v/v). The chromatography plate, together with a ^14C-standard substance, was exposed to an imaging plate (Fuji Film), and was analyzed with Fuji Film Bio-Image analyzer BAS-2000 to obtain an autoradiogram. By scanning of spots corresponding to the standard radioactive samples, a standard dose-response curve was plotted. Then, by use of the standard curve, each scanned value of arachidonic acid spots and prostaglandin H2 spots was converted to a amount of radiation. Indomethacin was purchased from Sigma, and PZ25 was a gift from Rhone-Poulenc Rorer.

[2] = LD50 determination, intraperitoneal administration; settings: mouse, in vivo, ip
[3] = LD50 determination, oral administration; settings: mouse, in vivo
rat = experiment: LD50 determination in rats; type: in vivo

SMILES | Generated Amount of Prostaglandin H2 (%) ([1]; dose of compound 1 μM) | Generated Amount of Prostaglandin H2 (%) ([1]; dose of compound 3 μM) | Generated Amount of Prostaglandin H2 (%) ([1]; dose of compound 10 μM) | Generated Amount of Prostaglandin H2 (%) ([1]; dose of compound 30 μM) | LD50 [2] [mg/kg] | LD50 [3] [mg/kg] | LD50 (rat)
O=c1c2ccccc2[se]n1-c1ccccc1 [Compound A, 2-phenyl-1,2-benzisoselenazol-3(2H)-one] | 91.8 ± 14.3 | 78.6 ± 5.28 | 46.88 ± 6.49 | 20.10 ± 1.95 | 740 | ≥ 6810 | large doses were required
O=c1c2ccccc2sn1-c1ccccc1 [PZ25, 2-phenyl-1,2-benzisothiazol-3(2H)-one, reference compound] |  | 103.25 ± 9.29 | 103.53 ± 11.2 | 93.9 ± 9.06 |  |  | 
